Laboratory results as given in publication PMC2782520 (Biochemistry, 2009).

Experiments:
ERβ [1] = target: T1, ERβ (Homo sapiens, UniProt Q92731); experiment: Cell based functional assay, ERE-luciferase in HEK 293 cells, agonist mode; conditions: for ERβ Agonist % stim: % stimulation versus DES maximum response; for EC50: read-out: ERβ Agonist EC50, ERE-luciferase, 24 h
[2] = target: ERβ LBD (amino acids 257–502) (Homo sapiens, UniProt Q92731); experiment: Differential HDX mass spectrometry of ERβLBD with and without ligand; format: binding; conditions: for Average difference in deuterium levels, LOOP 271-294 / Average difference in deuterium levels, LOOP 271-295 / Average difference in deuterium levels, LOOP 273-294 / Average difference in deuterium levels, LOOP 273-295 / Average difference in deuterium levels, LOOP 274-295 / Average difference in deuterium levels, LOOP 282-294 / Average difference in deuterium levels, LOOP 282-295: ERβLBD:ligand 1:10, average of 1, 30, 60, 900, 4200 sec, negative = protection
ERβ [3] = target: T1, ERβ; experiment: Cell based functional assay, ERE-luciferase in HEK 293 cells, antagonist mode; conditions: for ERβ Antag % inhib.: HEK 293 cells, ERE-luciferase
ERα = target: T2, ERα (Homo sapiens, UniProt P03372); experiment: ER competition binding assay
T2 sequence (P03372 1-595): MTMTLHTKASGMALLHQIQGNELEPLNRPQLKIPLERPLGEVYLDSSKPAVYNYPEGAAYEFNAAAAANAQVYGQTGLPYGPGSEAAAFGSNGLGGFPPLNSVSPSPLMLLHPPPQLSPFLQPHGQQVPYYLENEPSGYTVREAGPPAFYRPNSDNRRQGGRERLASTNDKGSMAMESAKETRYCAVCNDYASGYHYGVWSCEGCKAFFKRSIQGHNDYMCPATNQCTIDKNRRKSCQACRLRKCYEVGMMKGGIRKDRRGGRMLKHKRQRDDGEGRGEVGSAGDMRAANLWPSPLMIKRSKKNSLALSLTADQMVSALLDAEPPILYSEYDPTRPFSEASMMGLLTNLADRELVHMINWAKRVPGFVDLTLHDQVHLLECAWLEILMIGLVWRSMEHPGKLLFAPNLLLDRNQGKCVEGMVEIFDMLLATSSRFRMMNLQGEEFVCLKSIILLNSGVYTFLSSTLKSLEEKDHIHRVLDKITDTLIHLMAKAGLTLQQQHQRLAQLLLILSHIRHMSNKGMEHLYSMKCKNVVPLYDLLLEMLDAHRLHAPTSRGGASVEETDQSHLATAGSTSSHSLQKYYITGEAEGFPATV

ERβ [4] = target: T1, ERβ; experiment: ER competition binding assay
ER β = conditions: ERβ versus ERα; cited from earlier work

T1 sequence (Q92731 whole entry, the tested form may be a part): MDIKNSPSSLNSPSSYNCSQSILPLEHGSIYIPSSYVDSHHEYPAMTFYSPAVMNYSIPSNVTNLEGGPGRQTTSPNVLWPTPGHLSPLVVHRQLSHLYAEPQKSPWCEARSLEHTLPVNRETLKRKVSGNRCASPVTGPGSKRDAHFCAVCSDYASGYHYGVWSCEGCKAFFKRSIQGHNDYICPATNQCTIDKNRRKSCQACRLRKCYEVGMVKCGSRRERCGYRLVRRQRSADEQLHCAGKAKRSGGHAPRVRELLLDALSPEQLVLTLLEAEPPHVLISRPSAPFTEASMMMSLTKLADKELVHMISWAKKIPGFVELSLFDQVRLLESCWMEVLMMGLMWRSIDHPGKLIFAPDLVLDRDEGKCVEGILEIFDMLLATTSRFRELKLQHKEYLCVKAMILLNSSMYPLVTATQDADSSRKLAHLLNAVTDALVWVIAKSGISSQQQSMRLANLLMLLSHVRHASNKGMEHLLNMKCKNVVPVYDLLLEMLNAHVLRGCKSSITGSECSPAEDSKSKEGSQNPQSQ
Chain of ERβ LBD (amino acids 257–502) (Q92731 257-502): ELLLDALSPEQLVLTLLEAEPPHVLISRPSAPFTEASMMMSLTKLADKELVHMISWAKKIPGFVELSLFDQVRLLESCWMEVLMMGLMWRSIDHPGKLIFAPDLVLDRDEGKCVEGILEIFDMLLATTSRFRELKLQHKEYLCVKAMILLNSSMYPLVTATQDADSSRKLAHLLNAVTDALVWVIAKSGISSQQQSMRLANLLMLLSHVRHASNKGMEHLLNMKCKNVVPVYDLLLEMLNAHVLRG

Structure (SMILES)	ERβ Agonist % stim (ERβ [1])	EC50 (ERβ [1])	Average difference in deuterium levels, LOOP 271-294 [2]	Average difference in deuterium levels, LOOP 271-295 [2]	Average difference in deuterium levels, LOOP 273-294 [2]	Average difference in deuterium levels, LOOP 273-295 [2]	Average difference in deuterium levels, LOOP 274-295 [2]	Average difference in deuterium levels, LOOP 282-294 [2]	Average difference in deuterium levels, LOOP 282-295 [2]	ERβ Antag % inhib. (ERβ [3])	Ki (ERα)	Ki (ERβ [4])	IC50 (ERβ [3])	Protection to exchange, β-sheet1/β-sheet2 region ([2]; amino acid 355–362 of ERβLBD, p<0.001, positive = protection)	Protection (stabilization) of helix 3 to H/D exchange, ERβ ([2]; helix 3, amino acids 296–309 in ERβ, positive = protection)	Binding to ER β tighter than to ERα (ER β)
O=C(c1ccc(O)cc1)c1c(-c2ccc(O)cc2)sc2cc(O)ccc12 [compound 88074]	104%	232 nM	−7%	−8%	−9%	−7%	−8%	−7%	−7%							
C[C@]12CC[C@@H]3c4ccc(O)cc4CC[C@H]3[C@@H]1CC[C@@H]2O [Estradiol, 17β-estradiol]	100%		−6%	−7%	−9%	−6%	−8%	−7%	−6%							
C[C@]12CC[C@@H]3c4ccc(O)cc4C[C@@H](CCCCCCCCC[S+]([O-])CCCC(F)(F)C(F)(F)F)[C@H]3[C@@H]1CC[C@@H]2O (stereo partly drawn) [ICI, ICI 182780]			−9%	−10%	−11%	−10%	−11%	−9%	−10%	109%						
CC/C(=C(/CC)c1ccc(O)cc1)c1ccc(O)cc1 [DES, Diethylstilbestrol]	97%		−10%	−10%	−12%	−10%	−10%	−8%	−10%							
Oc1ccc2c(c1)CC[C@H](c1ccccc1)[C@@H]2c1ccc(OCCN2CCCC2)cc1 [Lasodoxifene, lasofoxifene]			−11%	−11%	−12%	−9%	−12%	−9%	−9%	103%						
O=C(c1ccc(OCCN2CCCCC2)cc1)c1c(-c2ccc(O)cc2)sc2cc(O)ccc12 [Raloxifene, raloxifene]			−7%	−7%	−9%	−7%		−6%	−7%							
O=C(c1ccc(OCCN2CCCC2)cc1)c1c(-c2ccc(O)cc2)sc2cc(O)ccc12 [compound 117018]		> 10000 nM	−7%	−7%	−8%	−7%	−8%	−7%	−8%	108%	0.32 nM	1.3 nM	204 nM			
CC/C(=C(\c1ccc(O)cc1)c1ccc(OCCN(C)C)cc1)c1ccccc1 [4-hydroxy tamoxifen, 4-hydroxytamoxifen]			−8%	−11%	−12%	−11%	−12%	−10%	−11%					~ 20%	13%	
O=c1c(-c2ccc(O)cc2)coc2cc(O)cc(O)c12 [Genistein, genistein]																approximately 10 fold
